Results reported in patent publication US20060148712A1, “Monocyte chemoattractant activity of galectin-3” (priority 2000, published 2006).

Legend:
CXCR-4 = target: T1, CXCR-4 (Homo sapiens, UniProt P61073); assay: Immunoprecipitation and immunoblotting with specific antibodies; format: binding
T1 construct: Chemokine receptors expressed on monocytes include CCR-1, CCR-2, CCR-5, and CXCR-4; endogenous in cells

CCR-5 = target: T2, CCR-5 (Homo sapiens, UniProt P51681); assay: as above; format: binding
T2 construct: Chemokine receptors expressed on monocytes include CCR-1, CCR-2, CCR-5, and CXCR-4; endogenous in cells

eosinophils = assay: Eosinophil attraction in vitro (not shown); format: cell-based
[1] = system: human alveolar macrophages; assay: Migration of human alveolar macrophages in vitro; format: cell-based; conditions: two separate experiments; bell-shaped dose-response curves
Source text: (§1) Human macrophages were obtained by culturing peripheral blood monocytes in vitro for 7 days as previously described (Fantuzzi, et al., Blood 94:875-83 (1999)). Human alveolar macrophages were obtained from bronchoalveolar lavage (BAL) fluid according to a previously described protocol (Sugimoto et al, Am. Rev. Respir. Dis. 139:1329-35 (1989)). The purity of the macrophages was over 90% and the viability was over 99%.
(§2) Monocyte migration was examined by using 96-well micro Boyden chambers with 5 μm-pore size filters (Neuro Probe, Inc., Gaithersburg, Md.) as described previously (Falk, et al., J. Immunol. Meth. 33:239-47 (1980)), Chertov, et al., J. Biol. Chem. 271:2935-40 (1996)). Briefly, after the indicated concentrations of galectin-3 in RPMI 1640 were applied to the lower chambers, purified monocyte suspensions (2.5-5.0×10^4/well) were applied to the upper chambers. After incubation of the chambers for 1 h in a humidified incubator at 5% CO2 and 37° C., the filters were washed once with PBS and processed with Wright stain. The number of monocytes on the bottom side of the filters was counted in 5 to 10 high-power fields. Monocyte migration was calculated from the average numbers of the counted cells and expressed as % of input cells in a well.

CCR-1 = target: T3, CCR-1 (Homo sapiens, UniProt P32246); assay: Immunoprecipitation and immunoblotting with specific antibodies; format: binding
T3 construct: Chemokine receptors expressed on monocytes include CCR-1, CCR-2, CCR-5, and CXCR-4; endogenous in cells
T3 sequence (P32246 1-355): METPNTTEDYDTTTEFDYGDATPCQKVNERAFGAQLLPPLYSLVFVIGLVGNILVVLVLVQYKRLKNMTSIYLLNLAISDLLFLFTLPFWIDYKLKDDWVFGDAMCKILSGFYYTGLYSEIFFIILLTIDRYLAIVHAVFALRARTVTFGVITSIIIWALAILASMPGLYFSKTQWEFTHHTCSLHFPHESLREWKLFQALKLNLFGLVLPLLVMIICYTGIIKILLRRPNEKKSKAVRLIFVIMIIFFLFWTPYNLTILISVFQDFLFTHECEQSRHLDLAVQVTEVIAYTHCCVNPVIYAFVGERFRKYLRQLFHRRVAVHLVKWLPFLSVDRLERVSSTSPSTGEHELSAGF

[2] = system: cell recruitment into mouse air pouches; assay: Migration assay in vivo (mouse air pouch); parameters: species or system Balb/c mice
Experimental: The mouse air pouch experiments were performed according to a method described previously (Perretti, et al., J. Immunol. 151:4306-14 (1993)). Briefly, an air pouch was induced on the back of Balb/c mice by injecting 3 ml of air intradermally 2, 4, and 6 days before the experiments. Then, 1 ml of 0.9% sodium chloride (USP grade saline, Baxter Healthcare Corporation, Deerfield, Ill.) containing 1 μM galectin-3 was injected into the pouch. As positive and negative controls, 100 ng/ml of recombinant MCP-1 and diluent only, respectively, were injected. Four h afterwards, recruited cells were recovered by gently lavaging the pouch with 1 ml of PBS containing 1 mM EDTA. Cell number was determined and the distribution of leukocyte types was analyzed after cytospin preparation and Wright staining.

neutrophils = assay: Neutrophil migration; format: cell-based
[3] = system: cultured human peripheral blood macrophages; assay: Migration of cultured human peripheral blood macrophages in vitro; format: cell-based; conditions: 1 μM galectin-3; p<0.05, n=3
Source text: as §1, §2

lymphocytes = assay: Lymphocyte migration in vitro; format: cell-based
human monocytes = assay: Measurement of Ca2+ influx in monocytes (Indo-1 AM); format: cell-based
Experimental: Intracellular concentrations of Ca^2+ were measured by using Indo-1 AM according to a previously described method (Lopez, et al., Cytometry 10:165-73 (1989)). Purified monocytes were resuspended in HBSS containing 1 mM Ca^2+, 1 mM Mg^2+, and 5% autologous serum, and incubated with […] Indo-1 AM for 45 min at 37° C. The cells were washed once, resuspended in the same buffer, and stimuli and inhibitors were added at the time points specified in the Figure Legends. Intracellular Ca^2+ concentration was measured by monitoring light emission at 405 and 485 nm to an excitation wavelength of 355 nm, using an AMINCO-Bowman series 2 luminescence spectrometer (Rochester, N.Y.).

CCR-2 = target: T4, CCR-2 (Homo sapiens, UniProt P41597); assay: Immunoprecipitation and immunoblotting with specific antibodies; format: binding
T4 construct: Chemokine receptors expressed on monocytes include CCR-1, CCR-2, CCR-5, and CXCR-4; endogenous in cells

[4] = 1 μM galectin-3, 1 ml into pouch, 4 h, p<0.05, n=4

T4 sequence (P41597 whole entry): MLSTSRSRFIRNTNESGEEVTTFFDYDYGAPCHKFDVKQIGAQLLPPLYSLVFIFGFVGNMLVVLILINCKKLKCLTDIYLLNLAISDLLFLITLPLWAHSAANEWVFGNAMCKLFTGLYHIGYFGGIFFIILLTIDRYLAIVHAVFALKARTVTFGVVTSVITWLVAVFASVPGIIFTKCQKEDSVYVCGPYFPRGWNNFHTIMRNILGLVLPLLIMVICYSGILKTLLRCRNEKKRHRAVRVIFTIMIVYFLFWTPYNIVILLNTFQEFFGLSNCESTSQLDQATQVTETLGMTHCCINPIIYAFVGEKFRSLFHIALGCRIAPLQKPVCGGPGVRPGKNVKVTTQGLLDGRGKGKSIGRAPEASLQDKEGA
T2 sequence (P51681 whole entry): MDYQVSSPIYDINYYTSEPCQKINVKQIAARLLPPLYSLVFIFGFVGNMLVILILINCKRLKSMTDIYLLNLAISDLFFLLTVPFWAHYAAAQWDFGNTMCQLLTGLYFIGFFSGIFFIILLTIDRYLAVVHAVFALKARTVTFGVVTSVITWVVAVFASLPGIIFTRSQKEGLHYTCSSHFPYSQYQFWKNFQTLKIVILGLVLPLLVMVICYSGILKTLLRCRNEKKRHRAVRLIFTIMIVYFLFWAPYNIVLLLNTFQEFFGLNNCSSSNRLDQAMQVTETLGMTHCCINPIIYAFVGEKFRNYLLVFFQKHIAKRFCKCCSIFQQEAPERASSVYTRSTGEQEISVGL
T1 sequence (P61073 whole entry): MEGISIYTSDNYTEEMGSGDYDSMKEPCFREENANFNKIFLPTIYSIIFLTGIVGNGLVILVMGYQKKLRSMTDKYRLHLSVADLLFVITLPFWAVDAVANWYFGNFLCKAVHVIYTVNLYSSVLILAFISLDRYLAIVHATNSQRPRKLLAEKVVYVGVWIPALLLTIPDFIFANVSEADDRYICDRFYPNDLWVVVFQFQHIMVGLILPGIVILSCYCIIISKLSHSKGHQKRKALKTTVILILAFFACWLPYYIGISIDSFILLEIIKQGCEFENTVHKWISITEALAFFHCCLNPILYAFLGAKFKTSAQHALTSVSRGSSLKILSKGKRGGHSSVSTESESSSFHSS

## galectin-3: Recombinant human galectin-3, a 26 kDa beta-galactoside-binding protein (lectin)
CXCR-4
  Interaction with chemokine receptor: Neither have interactions between galectin-3 and these four chemokine receptors been detected
CCR-5
  Interaction with chemokine receptor: Neither have interactions between galectin-3 and these four chemokine receptors been detected
eosinophils
  Attraction of eosinophils in vitro: does not attract eosinophils
[1]
  Migration of human alveolar macrophages: migrated towards galectin-3
CCR-1
  Interaction with chemokine receptor: Neither have interactions between galectin-3 and these four chemokine receptors been detected
[2]; [4]
  Increase in number of monocytes in the air pouch over vehicle (saline): 11.6 times
  Increase in number of neutrophils in the air pouch over vehicle (saline): 8.21 times
[2]; 1 μM galectin-3, 4 h, p=0.112
  Number of eosinophils in the air pouch: not augmented significantly
[2]; 1 μM galectin-3, 4 h, p=0.309
  Number of lymphocytes in the air pouch: not augmented significantly
neutrophils
  Concentration required for maximum migration of neutrophils compared with monocytes: Lower concentrations
[3]
  Enhancement of macrophage migration over that induced by the control medium: 190%
lymphocytes
  Migration of lymphocytes in vitro: does not induce migration of lymphocytes
Human monocytes; 1 μM galectin-3
  Induction of Ca2+ influx in human monocytes: induced a Ca^2+ influx
Human monocytes; 1 μM galectin-3 vs 100 ng/ml MCP-1, three separate experiments
  Extent of Ca2+ influx compared with MCP-1: lower than that by the chemokine
Human monocytes; 1 μM galectin-3 vs MCP-1, MIP-1α, SDF-1α at 100 ng/ml, either order
  Cross-desensitization of Ca2+ influx with monocyte-reactive chemokines: no cross-desensitization
Human monocytes; galectin-3 concentrations lower than 1 μM
  Induction of Ca2+ influx in human monocytes: not
CCR-2
  Interaction with chemokine receptor: Neither have interactions between galectin-3 and these four chemokine receptors been detected
